Series [1] concerns human epidermal melanocytes (HEM). Description: Melanin content in HEM stimulated with α-MSH or L-tyrosine. It counts as cell-based. The text has this:
FIG. 5 is an experimental result showing effects of peptide B6 on cell viability of human epidermal melanocytes (HEM), melanin content and human tyrosinase (TYR) enzymatic activity. […] The intracellular and extracellular melanin contents were normalized with respect to the total protein content. […] Data are expressed in percent (%) as mean±standard error (mean±SE, n=3) compared to the vehicle control group. In the figures, #represents p<0.05 compared to the control group and * represents p<0.05 compared to cells stimulated only with tyrosine.
(§1) Melanogenesis-inhibitory effects of the analyte (the peptides) was confirmed using the B16-F10 cell line and HEM. B16-F10 cells were treated with a test peptide at different concentrations for 60 minutes and stimulated using a 100 nM α-MSH for 72 hours. While HEM was also treated with the test peptide at different concentrations for 60 minutes and cultured with 100 nM α-MSH or 4.0 mM L-tyrosine while replacing the culture medium every 48 hours for 6 days. Using the culture medium used for culturing cells (conditioned medium), extracellular melanin level was measured. On the other hand, intercellular melanin was extracted with 0.1M NaOH at 60° C. for 60 minutes. A melanin content was determined by measuring an absorbance at 475 nm according to a spectroscopic method. The resultant values were subjected to normalization with respect to the total protein content of the cell.
(§2) Cell viability was determined by treating the cells with B6 at different concentrations of up to 1 mM for 24 hours (A in FIG. 5). […] Further, effects on melanin content in the cells were examined by pre-treatment of the cells with B6 peptide at different concentrations of up to 300 μM, and then, stimulating the same with α-MSH at 100 nM or tyrosine at 4 mM for […] (B, C in FIG. 5). As a positive control group for melanogenesis inhibition, arbutin was used.

For series [2], the system named is B16-F10 cells. Description: Melanin content in α-MSH-stimulated B16-F10 cells (absorbance at 475 nm). It counts as cell-based, murine. The following applies: for melanin inhibitory effect of short peptides compared to B6 peptide: concentrations of 100 μM to 10 μM. How it is done: FIG. 2 is an experimental result showing the effect of each hexapeptide on cellular melanin biosynthesis. FIG. 2A represents a peptide wherein the type of amino acids fixed at 3 positions in the amino acid sequence of the amino acids, while the type of amino acids is altered at the other 3 positions. FIG. 2B represents a peptide wherein the amino acid sequence was defined. The cell-based assay in FIG. 2 is conducted by treating B16-F10 cells with a vehicle or peptide at a predetermined concentration, stimulating the same with α-MSH at 100 nM, and measuring absorbance at 475 nm after 72 hours to determine melanin content. Data are expressed in percent (%) as mean ± standard error (mean±SE, n=3) compared to the vehicle control group. In the figures, # means p<0.05 compared to the control group and * means p<0.05 compared to cells stimulated only with α-MSH. The amino acid sequences described in FIG. 2 are all represented in the direction from the amino terminal to the carboxy terminal. An amino functional group (—NH2) shown in the peptide terminal is one added by carboxy terminal amidation used in peptide synthesis.
The cell-based Assay in FIG. 3 is conducted by treating B16-F10 cells with a vehicle or peptide at a predetermined concentration, stimulating the same with 100 nMα-[…], and measuring the absorbance at 475 nm after 72 hours to determine the melanin content. Data are expressed in percent (%) as mean±standard, error (mean±SE, n=3) compared to the vehicle control group. In the figures, # means p<0.05 compared to the control group and * means p<0.05 compared to cells stimulated only with α-MSH. The amino acid sequences described in FIG. 2 are all represented in the direction from the amino terminal to the carboxy terminal. An acetyl group (Ac—) shown in the peptide amino terminal or an amino functional group (—NH2) shown in the carboxy terminal is one added by chemical synthesis of peptide.
as §1

The test system of series [3] is B16-F10 cells. Description: Cell viability by MTT assay, B16-F10. It is filed as cell-based, murine. The following applies: up to 300 μM, 24 hours (tested up to 1 mM). How it is done:
(§3) Cell viability was determined by 3-(4,5-dimethylthiazol-2-yl)-2,5-diphenyltetrazolium bromide (MTT) assay. B16-F10 cell line and HEM were treated with test peptides at different concentrations for 24 hours. After washing with PBS, the cells were in a culture medium 100 including 1 mg/mL MTT (Amresco, Solon, Ohio, USA) added thereto for 3 hours. After removing the culture medium, formazan accumulated in the cells was […] using isopropanol and subjected to determination of absorbance at 595 nm using a SPECTROstar Nano microplate reader (BMG LABTECH GmbH, Ortenberg, Germany).
Cell viability was determined by treating the cells with B6 at different concentrations up to 1 mM for 24 hours (A in FIG. 4). […] Further, effects on melanin content in the cells were examined by pre-treatment of the cells with B6 peptide at different concentrations of up to 300 μM, and then, stimulating the same with α-MSH at 100 nM for 72 hours (B in FIG. 4).

Series [4] concerns human epidermal melanocytes (HEM). Description: Cell viability by MTT assay, HEM. The following applies: up to 300 μM, 24 hours (tested up to 1 mM). It counts as cell-based. How it is done: as §3, §2

Ends that are not written are not given here.

Take `N[C@@H](Cc1ccc(O)cc1)C(=O)O` [L-tyrosine]: in series [1] (tyrosine at 4 mM, HEM), the “extracellular and intracellular melanin contents, effect of stimulus L-tyrosine” value is “increased extracellular and intracellular melanin contents”.
With `OC[C@H]1O[C@@H](Oc2ccc(O)cc2)[C@H](O)[C@@H](O)[C@@H]1O` [arbutin], the “inhibition of increase in melanin content by L-tyrosine” value in series [1] (HEM stimulated with 4 mM L-tyrosine, peptide up to 300 μM) is reported as “effectively inhibited”.
“Ac-Ser-Tyr-Ser-Met-Glu-His-Phe-Arg-Trp-Gly-Lys-Pro-Val-NH2 (Ac-SYSMEHFRWGKPV-NH2) [α-MSH, agent of melanocortin 1 receptor used to stimulate melanogenesis, reference compound]”: in the series on B16-F10 cells [2] (α-MSH alone, B16-F10 cells), the “melanin content, effect of stimulus” value was “increased melanin content”. The “melanogenesis, effect of stimulus α-MSH” value in series [1] (α-MSH at 100 nM, HEM) is “did not show significant effect on melanogenesis”.
Consider FSHHLG [C1], for which, in the series on B16-F10 cells [2] (100 nM α-MSH, 72 hours), the “melanin inhibitory effect of short peptides compared to B6 peptide” value is given as “melanin inhibitory effect similar to B6 peptide”.
In the case of “FSHHLG-NH2 [B6, Phe-Ser-His-His-Leu-Gly]”, the cell viability result (in the series on B16-F10 cells [3]; in series [4]) was “did not affect the viability” throughout.
For Phe-Ser-His-His-Leu (FSHHL; C2 peptide), the “melanin inhibitory effect of short peptides compared to B6 peptide” value in the series with B16-F10 cells [2] (100 nM α-MSH, 72 hours) is on record as “did not substantially inhibit melanogenesis”.
Regarding Ser-His-His-Leu-Gly (SHHLG; C3 peptide), the “melanogenesis inhibitory effect of short peptide” value in the series on B16-F10 cells [2] (100 μM, 100 nM α-MSH, 72 hours) is reported as “excellent in melanogenesis inhibitory effect”.

For the origin of these results see patent publication US20190382445A1, “PEPTIDE HAVING MELANOGENESIS-INHIBITING ACTIVITY AND COMPOSITION COMPRISING SAME” (RUBY CROWN CO. LTD., priority 2016, published 2019).
